# Test results published in patent US20230329236A1, “HERBICIDAL PYRIMIDINE DERIVATIVES” (MoA Technology Limited, priority 2020, published 2023).
# Tests used:
# [1] = test system: Lolium multiflorum (LOLMU); assay: Post-emergence glasshouse test, visual injury, LOLMU; format: in vivo; conditions: 336 h, 14±1 days post application
# How it was run: (§1)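 In this glasshouse test, sandy-loam-grown plants at BBCH 12-14 received a foliar spray of compound in 0.5% Tween 20 acetone/water (50:50) at rates expressed in g/ha. Injury was rated visually against untreated plots two weeks (14±1 d) later.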
# [2] = test system: Echinochloa crus-gaffi (ECHCG); assay: Post-emergence glasshouse test, visual injury, ECHCG; format: in vivo, Echinochloa crus-galli; conditions: 336 h, 14±1 days post application
# How it was run: as §1
# Veronica persica (VERPE) = assay: Post-emergence glasshouse test, visual injury, VERPE; format: in vivo; conditions: 336 h, 14±1 days post application
# How it was run: as §1
# [3] = test system: Amaranthus retroflexus (AMARE); assay: Post-emergence glasshouse test, visual injury, AMARE; format: in vivo; conditions: 336 h, 14±1 days post application
# How it was run: as §1
# Glycine max (GLXMA) = assay: Post-emergence glasshouse test, visual injury, GLXMA; format: in vivo; conditions: Table 4, post-emergence, 14±1 days post application
# Method: (§2) Seeds of a variety of test species are grown in a sandy loam soil mixture, Lolium multiflorum (LOLMU), Amaranthus retroflexus (AMARE), Echinochloa crus-gaffi (ECHCG), Veronica persica (VERPE), Glycine max (GLXMA), Oryza sativa (ORYSA), Zea mays (ZEAMX), spring wheat (TRZAS), Ipomoea hederacea (IPOHE), Ipomoea purpurea (PHBPU), Stellaria media (STEME), Solanum nigrum (SOLNI), Digitaria sanguinalis (DIGSA), Setaria italica (SETIT), Alopecurus myosuroides (ALOMY) and Avena fatua (AVEFA).
# (§3) After sowing, at growth stage BBCH 12-14 (post-emergence), the plants are sprayed with an aqueous spray solution derived from the formulation of the technical active ingredient in acetone/water (50:50) solution containing 0.5% Tween 20 (polyoxyethlyene sorbitan monolaureate, CAS RN 9005-64-5). The test compounds are applied at the required concentration of active ingredient in g/ha. The test plants are then grown in a glasshouse under controlled environmental conditions and watered regularly as required. After 14±1 days post application (for post-emergence test), the test is evaluated by assessing the percentage damage caused to the plants in comparison with the untreated plots. The biological activities for post-emergence testing are shown below (Table 3 and Table 4) as a % visual injury.
# Oryza sativa (ORYSA) = assay: Post-emergence glasshouse test, visual injury, ORYSA; format: in vivo; conditions: Table 4, post-emergence, 14±1 days post application
# Method: as §2, §3
# Zea mays (ZEAMX) = assay: Post-emergence glasshouse test, visual injury, ZEAMX; format: in vivo; conditions: Table 4, post-emergence, 14±1 days post application
# Method: as §2, §3
# spring wheat (TRZAS) = assay: Post-emergence glasshouse test, visual injury, TRZAS; format: in vivo; conditions: Table 4, post-emergence, 14±1 days post application
# Method: as §2, §3
# [4] = test system: Ipomoea hederacea (IPOHE); assay: Post-emergence glasshouse test, visual injury, IPOHE; format: in vivo; conditions: Table 4, post-emergence, 14±1 days post application
# Method: as §2, §3
# Ipomoea purpurea (PHBPU) = assay: Post-emergence glasshouse test, visual injury, PHBPU; format: in vivo; conditions: Table 4, post-emergence, 14±1 days post application
# Method: as §2, §3
# Stellaria media (STEME) = assay: Post-emergence glasshouse test, visual injury, STEME; format: in vivo; conditions: Table 4, post-emergence, 14±1 days post application
# Method: as §2, §3
# Solanum nigrum (SOLNI) = assay: Post-emergence glasshouse test, visual injury, SOLNI; format: in vivo; conditions: Table 4, post-emergence, 14±1 days post application
# Method: as §2, §3
# [5] = test system: Digitaria sanguinalis (DIGSA); assay: Post-emergence glasshouse test, visual injury, DIGSA; format: in vivo; conditions: Table 4, post-emergence, 14±1 days post application
# Method: as §2, §3
# Setaria italica (SETIT) = assay: Post-emergence glasshouse test, visual injury, SETIT; format: in vivo; conditions: Table 4, post-emergence, 14±1 days post application
# Method: as §2, §3
# [6] = test system: Alopecurus myosuroides (ALOMY); assay: Post-emergence glasshouse test, visual injury, ALOMY; format: in vivo; conditions: Table 4, post-emergence, 14±1 days post application
# Method: as §2, §3
# Avena fatua (AVEFA) = assay: Post-emergence glasshouse test, visual injury, AVEFA; format: in vivo; conditions: Table 4, post-emergence, 14±1 days post application
# Method: as §2, §3
# [7] = Table 4, post-emergence, 125 g/ha
# [8] = Table 4, post-emergence, 250 g/ha
# [9] = Table 4, post-emergence, 1000 g/ha
smiles,measurement,setting,value
Cc1cc(-c2cnc(NC3CCCC3)nc2C(C)C)on1 [Compound 45],pest or weed control at 500 g/ha,"[1]; Table 3, post-emergence",70%
same,pest or weed control at 125 g/ha,[1]; [7],40%
same,pest or weed control at 250 g/ha,[1]; [8],60%
same,pest or weed control at 500 g/ha,"[1]; Table 4, post-emergence",90%
same,pest or weed control at 1000 g/ha,[1]; [9],100%
same,pest or weed control at 500 g/ha,"[2]; Table 3, post-emergence",100%
same,pest or weed control at 125 g/ha,[2]; [7],70%
same,pest or weed control at 250 g/ha,[2]; [8],80%
same,pest or weed control at 500 g/ha,"[2]; Table 4, post-emergence",80%
same,pest or weed control at 1000 g/ha,[2]; [9],90%
same,pest or weed control at 500 g/ha,"Veronica persica (VERPE); Table 3, post-emergence",100%
same,pest or weed control at 125 g/ha,Veronica persica (VERPE); [7],100%
same,pest or weed control at 250 g/ha,Veronica persica (VERPE); [8],100%
same,pest or weed control at 500 g/ha,"Veronica persica (VERPE); Table 4, post-emergence",100%
same,pest or weed control at 1000 g/ha,Veronica persica (VERPE); [9],100%
same,pest or weed control at 500 g/ha,"[3]; Table 3, post-emergence",100%
same,pest or weed control at 125 g/ha,[3]; [7],95%
same,pest or weed control at 250 g/ha,[3]; [8],90%
same,pest or weed control at 500 g/ha,"[3]; Table 4, post-emergence",100%
same,pest or weed control at 1000 g/ha,[3]; [9],100%
same,GLXMA % visual injury,Glycine max (GLXMA); 125 g/ha,20%
same,GLXMA % visual injury,Glycine max (GLXMA); 250 g/ha,50%
same,GLXMA % visual injury,Glycine max (GLXMA); 500 g/ha,40%
same,GLXMA % visual injury,Glycine max (GLXMA); 1000 g/ha,50%
same,ORYSA % visual injury,Oryza sativa (ORYSA); 125 g/ha,50%
same,ORYSA % visual injury,Oryza sativa (ORYSA); 250 g/ha,99%
same,ORYSA % visual injury,Oryza sativa (ORYSA); 500 g/ha,90%
same,ORYSA % visual injury,Oryza sativa (ORYSA); 1000 g/ha,80%
same,ZEAMX % visual injury,Zea mays (ZEAMX); 125 g/ha,0%
same,ZEAMX % visual injury,Zea mays (ZEAMX); 250 g/ha,0%
same,ZEAMX % visual injury,Zea mays (ZEAMX); 500 g/ha,70%
same,ZEAMX % visual injury,Zea mays (ZEAMX); 1000 g/ha,40%
same,TRZAS % visual injury,spring wheat (TRZAS); 125 g/ha,0%
same,TRZAS % visual injury,spring wheat (TRZAS); 250 g/ha,30%
same,TRZAS % visual injury,spring wheat (TRZAS); 500 g/ha,30%
same,TRZAS % visual injury,spring wheat (TRZAS); 1000 g/ha,40%
same,IPOHE % visual injury,[4]; 125 g/ha,0%
same,IPOHE % visual injury,[4]; 250 g/ha,50%
same,IPOHE % visual injury,[4]; 500 g/ha,40%
same,IPOHE % visual injury,[4]; 1000 g/ha,60%
same,PHBPU % visual injury,Ipomoea purpurea (PHBPU); 125 g/ha,50%
same,PHBPU % visual injury,Ipomoea purpurea (PHBPU); 250 g/ha,70%
same,PHBPU % visual injury,Ipomoea purpurea (PHBPU); 500 g/ha,70%
same,PHBPU % visual injury,Ipomoea purpurea (PHBPU); 1000 g/ha,70%
same,STEME % visual injury,Stellaria media (STEME); 125 g/ha,100%
same,STEME % visual injury,Stellaria media (STEME); 250 g/ha,100%
same,STEME % visual injury,Stellaria media (STEME); 500 g/ha,100%
same,STEME % visual injury,Stellaria media (STEME); 1000 g/ha,100%
same,SOLNI % visual injury,Solanum nigrum (SOLNI); 125 g/ha,98%
same,SOLNI % visual injury,Solanum nigrum (SOLNI); 250 g/ha,100%
same,SOLNI % visual injury,Solanum nigrum (SOLNI); 500 g/ha,100%
same,SOLNI % visual injury,Solanum nigrum (SOLNI); 1000 g/ha,100%
same,DIGSA % visual injury,[5]; 125 g/ha,80%
same,DIGSA % visual injury,[5]; 250 g/ha,70%
same,DIGSA % visual injury,[5]; 500 g/ha,95%
same,DIGSA % visual injury,[5]; 1000 g/ha,98%
same,SETIT % visual injury,Setaria italica (SETIT); 125 g/ha,50%
same,SETIT % visual injury,Setaria italica (SETIT); 250 g/ha,80%
same,SETIT % visual injury,Setaria italica (SETIT); 500 g/ha,95%
same,SETIT % visual injury,Setaria italica (SETIT); 1000 g/ha,95%
same,ALOMY % visual injury,[6]; 125 g/ha,50%
same,ALOMY % visual injury,[6]; 250 g/ha,70%
same,ALOMY % visual injury,[6]; 500 g/ha,50%
same,ALOMY % visual injury,[6]; 1000 g/ha,80%
same,AVEFA % visual injury,Avena fatua (AVEFA); 125 g/ha,0%
same,AVEFA % visual injury,Avena fatua (AVEFA); 250 g/ha,40%
same,AVEFA % visual injury,Avena fatua (AVEFA); 500 g/ha,60%
same,AVEFA % visual injury,Avena fatua (AVEFA); 1000 g/ha,70%
